Assay results: patent publication US20070197453A1, “Compositions and methods for treatment of disorders of protein aggregation” (priority 2006, published 2007)
“Also recorded” adds a separate entry of the source.

Columns and labels:
[1] = tested on: TgCRND8 mice; assay: Morris Water Maze spatial reference memory test; format: in vivo, mouse; conditions: for spatial memory / cognition compared to untreated TgCRND8 mice / spatial memory compared to non-Tg littermates: one month treatment from 5 months of age; for effect on non-Tg littermate performance: non-Tg littermates, one month treatment
Experimental: (§1) Behavioural tests: Morris Water Maze testing was performed as previously described. After non-spatial pre-training, mice underwent place discrimination training for 5 days with 4-trials per day, followed by a cued visible platform to rule out general motivational, learning deficits and motor problems, and a probe trial to evaluate memory. […] Open field test for motor activity was preformed as described previously. Duration of walking, pausing and grooming were analyzed as indices of spontaneous locomotor activity. Sensorimotor function was examined with an Economex™ accelerating rotarod (Columbus Instruments, Columbus, Ohio), as described elsewhere. The rod was set to accelerate at a rate of 0.2 r.p.m./s, from an initial, constant speed of 5 r.p.m. Latency to fall was recorded in four daily trials, conducted at 30 min intervals. All mice were trained for seven days before testing. The test day performance score for each animal was obtained by summing its latency to fall over the four trials
Behavioural tests: Behavioural analyses were performed using the Morris Water Maze test (13, 14). After pre-spatial training, mice underwent place discrimination training for 5 days with 4 trials per day, followed by a cued visible platform to rule out general motivational, learning deficits and motor problems. […] Open field test for motor activity was performed as described previously. Duration of walking, pausing, rearing and grooming were analyzed as indices of spontaneous locomotor activity.

[2] = tested on: TgCRND8 mice; assay: Synaptophysin quantification by western blotting (hippocampus); format: in vivo, mouse
Experimental: Synaptophysin protein levels were determined in treated and control mice by western blotting. Sections were immunoblotted for synaptophysin with anti-synaptophysin IgG (1:40; Roche, Laval, PQ) or GAPDH IgG (1: 10,000; Biodesign International) as a loading control. Films were scanned before analyses using NIH Image analyses combined with densitometry. Synaptophysin values were normalized to the loading control for each sample. Statistical analyses were determined using factorial ANOVA with Fishers PLSD as a post-hoc test.

[3] = tested on: TgCRND8 mice; assay: Survival census (Kaplan-Meier); format: in vivo, mouse
Experimental: Survival Census: The probability of survival was assessed by the Kaplan-Meier technique, computing the probability of survival at every occurrence of death, thus making it suitable for small sample sizes. For the analyses of survival, 35 mice were used for each treatment group. The Tarone-Ware test was used to assess effects of treatments.
Survival Census: The probability of survival was assessed by the Kaplan-Meier technique computing the probability of survival at every occurrence of death, thus making it suitable for small sample sizes. For the analyses of survival, 30 mice were used for each treatment group. The Tarone-Ware test was used to assess effects of treatments.

[4] = tested on: TgCRND8 mice; assay: Open field test for motor activity; format: in vivo, mouse; conditions: TgCRND8 mice and non-Tg littermates; drinking water 10 mg/ml, extended treatment
Experimental: as §1
(§2) Behavioural tests: Behavioural analyses were performed using the Morris Water Maze test (13, 14). […] Duration of walking, pausing, rearing and grooming were analyzed as indices of spontaneous locomotor activity.

[5] = tested on: TgCRND8 mice; assay: Cued visible platform test (Morris Water Maze); format: in vivo, mouse; conditions: one month treatment from 5 months of age
Experimental: as §1, §2

[6] = Hematology and serum biochemical analyses; format: in vivo, mouse
Description: Blood was collected prior to sacrifice and samples were sent to VITA-TECH laboratories (Markham, ON, Canada) for analyses. Reference values were obtained from Zhou and Hansson.

[7] = mouse, in vivo
Experimental: Mice. […] This initial dosage was chosen based upon the dosage of myo-cyclohexanehexol (6-18 grams/day/adult or 86-257 mg/Kg/day) that is typically administered to human patients for various psychiatric disorders. […] A cohort of animals (n=10 mice per treatment arm) entered the study at five months of age, and outcomes were then analyzed after one month of treatment. The body weight, coat characteristics and in cage behaviour were monitored. Mannitol was used as a negative control for potential alterations in caloric intake. All experiments were performed according to the Canadian Council on Animal Care guidelines.
Mice. […] Cohorts of animals entered the study at 5 months of age and outcomes were analyzed after one month. Alternatively, cohorts of animals entered the prophylactic study at 6 weeks of age and outcome measures were analysed at 6-months of age. The body weight, coat characteristics and in cage behaviour was monitored. All experiments were performed according to the Canadian Council on Animal Care guidelines.

[8] = drinking water 10 mg/ml, listed as Epi-2-inosose
[9] = drinking water 10 mg/ml, prophylactic from 6 weeks until six months of age

epi-2-inosose
spatial memory / cognition compared to untreated TgCRND8 mice ([1]; drinking water 10 mg/ml): significantly better than untreated TgCRND8 littermates | spatial memory compared to non-Tg littermates ([1]; drinking water 10 mg/ml): not significantly different from non-Tg littermates | spatial memory / cognition compared to untreated TgCRND8 mice [1, 8]: significantly improved cognition | spatial memory compared to non-Tg littermates [1, 8]: not significantly different from treated nTg littermates | spatial learning compared to non-Tg littermates [1, 9]: approached that of non-Tg littermates | spatial learning compared to untreated TgCRND8 littermates [1, 9]: better cognitive function compared to their untreated TgCRND8 littermates | spatial learning compared to non-Tg littermates ([1]; drinking water 10 mg/ml, prophylactic from 6 weeks until six months of age, listed as Epi-2-inosose): different from non-Tg littermates on all days of testing | effect on non-Tg littermate performance ([1]; drinking water 10 mg/ml): no effect on non-Tg littermate performance | effect on non-Tg littermate performance [1, 8]: no effect on non-Tg littermate behaviour | effect on cognitive performance of non-Tg mice ([1]; non-Tg mice, prophylactic administration): no effect on the cognitive performance of non-Tg mice | Synaptophysin reactivity / levels ([2]; 6 month prophylactic and treatment paradigms): significantly increased | increase in synaptophysin reactivity in the hippocampus ([2]; delayed treatment study): 15% | increase in synaptophysin reactivity in the hippocampus ([2]; prophylactic study): 33% | Kaplan Meier cumulative survival ([3]; drinking water 10 mg/ml, compared to untreated TgCRND8 mice): increased survival | improvement of survival ([3]; prophylactic treatment to six months of age, vs untreated): 50% | open field test: rearing, grooming, walking, pausing (activity levels) [4]: indistinguishable; also recorded: does not affect activity levels | Visual acuity (cued version of the Morris Water Maze test) [5]: not altered by treatment | serum biochemistry: organ function ([6]; Tg and non-Tg mice treated): normal kidney, heart, liver and pancreas function | ALP ([6]; serum, Treated TgCRND8): 73 ± 5 U/L | ALT ([6]; serum, Treated TgCRND8): 30 ± 3 U/L | Albumin ([6]; serum, Treated TgCRND8): 32 ± 2 g/L | Bilirubin ([6]; serum, Treated TgCRND8): 1.8 ± 0.15 µmol/L | Creatine ([6]; serum, Treated TgCRND8): 15.9 ± 2 µmol/L | Globulin ([6]; serum, Treated TgCRND8): 18 ± 2 g/L | Glucose ([6]; serum, Treated TgCRND8): 12 ± 0.6 mmol/L | Total Protein ([6]; serum, Treated TgCRND8): 49 ± 0.7 g/L | Urea ([6]; serum, Treated TgCRND8): 8.6 ± 0.4 mmol/L | survival, weight, fur condition, cage behaviour [7]: no effect on survival, weight, fur condition, or cage behaviour of wild type mice
